# Data from ChEMBL document CHEMBL3797065, “Kaurane and abietane diterpenoids from the roots of Tripterygium wilfordii and their cytotoxic evaluation” (Bioorg Med Chem Lett, 2016).
# How the values were obtained:
# [1] = system: HepG2; assay: Cytotoxicity against human HepG2 cells after 48 hrs by MTT assay; format: functional, cell-based; conditions: HepG2, 48 h
# [2] = Cytotoxicity against human Hep3B cells after 48 hrs by MTT assay; format: functional, cell-based, Hep 3B2
# [3] = system: Bcap37; assay: Cytotoxicity against human Bcap37 cells after 48 hrs by MTT assay; format: functional, cell-based; conditions: Bcap37, 48 h
# [4] = system: U-251; assay: Cytotoxicity against human U251 cells after 48 hrs by MTT assay; format: functional, cell-based; conditions: U-251, 48 h
# [5] = system: MCF7; assay: Cytotoxicity against human MCF7 cells after 48 hrs by MTT assay; format: functional, cell-based; conditions: MCF7, 48 h
# [6] = system: A549; assay: Cytotoxicity against human A549 cells after 48 hrs by MTT assay; format: functional, cell-based; conditions: A549, 48 h
compound,measurement,setting,value
C[C@@]12CCC[C@]3(C(=O)OC1)[C@@H]2CC[C@@]12C[C@H](CC[C@H]13)[C@](C)(O)C2,IC50,[1],97.1 µM
same,IC50,[2],> 100 µM
same,IC50,[3],> 100 µM
same,IC50,[4],> 100 µM
same,IC50,[5],> 100 µM
same,IC50,[6],> 100 µM
CC(C)c1ccc2c(c1)CC[C@H]1[C@@](C)(CO)C(=O)CC[C@]21C,IC50,[1],32.7 µM
same,IC50,[2],> 100 µM
same,IC50,[3],> 100 µM
same,IC50,[4],> 100 µM
same,IC50,[5],> 100 µM
same,IC50,[6],39 µM
C[C@]12C3=C4CC=C[C@@]3(O)OO[C@@H]1CC1=C(COC1=O)[C@@H]2CC4,IC50,[1],10.9 µM
same,IC50,[2],18 µM
same,IC50,[3],8.11 µM
same,IC50,[4],20.2 µM
same,IC50,[5],23.3 µM
same,IC50,[6],11.3 µM
CC(C)C1=C[C@@]2(O)OO[C@@H]3CC(=O)[C@](C)(CO)[C@@H]4CCC(=C2[C@]43C)C1=O,IC50,[1],> 100 µM
same,IC50,[2],17.7 µM
same,IC50,[3],> 100 µM
same,IC50,[4],24.9 µM
same,IC50,[5],> 100 µM
same,IC50,[6],10.7 µM
C=C1C(OC(C)=O)[C@]23[C@H](O)[C@H]1CC[C@H]2[C@]12CCCC(C)(C)[C@H]1[C@H](OC(C)=O)[C@@]3(O)OC2 (stereo not given in full),IC50,[1],38.4 µM
same,IC50,[2],48.3 µM
same,IC50,[3],> 100 µM
same,IC50,[4],> 100 µM
same,IC50,[5],37.4 µM
same,IC50,[6],21.9 µM
CC(C)C1=CC(=O)C2=C(CC[C@H]3[C@@](C)(CO)C(=O)CC[C@]23C)C1=O,IC50,[1],26.3 µM
same,IC50,[2],26 µM
same,IC50,[3],13.3 µM
same,IC50,[4],> 100 µM
same,IC50,[5],16.7 µM
same,IC50,[6],19.9 µM
C[C@@]1(O)C[C@@]23CC[C@H]4[C@@]5(CCC[C@]4(C)C(=O)OC5)[C@@H]2CC[C@H]1C3 [TRIPTERIFORDIN],IC50,[1],> 100 µM
same,IC50,[2],> 100 µM
same,IC50,[3],> 100 µM
same,IC50,[4],> 100 µM
same,IC50,[5],> 100 µM
same,IC50,[6],> 100 µM
CC(C)c1ccc2c(c1O)CC[C@H]1C(C)(C)[C@@H](O)CC[C@]21C,IC50,[1],46.3 µM
same,IC50,[2],> 100 µM
same,IC50,[3],> 100 µM
same,IC50,[4],> 100 µM
same,IC50,[5],> 100 µM
same,IC50,[6],> 100 µM
COc1cc2c(c(O)c1C(C)C)CC[C@H]1C(C)=C(C(=O)O)CC[C@]21C,IC50,[1],42.5 µM
same,IC50,[2],29.7 µM
same,IC50,[3],37.6 µM
same,IC50,[4],> 100 µM
same,IC50,[5],> 100 µM
same,IC50,[6],> 100 µM
C[C@@]1(O)C[C@@]23CC[C@H]4[C@@]5(CCC[C@]4(C)C(=O)OC5)[C@]2(O)CC[C@H]1C3,IC50,[1],> 100 µM
same,IC50,[2],> 100 µM
same,IC50,[3],> 100 µM
same,IC50,[4],> 100 µM
same,IC50,[5],> 100 µM
same,IC50,[6],> 100 µM
O=c1[nH]cc(F)c(=O)[nH]1 [FLUOROURACIL],IC50,[2],17.5 µM
same,IC50,[3],15.5 µM
same,IC50,[4],24.7 µM
same,IC50,[6],21.6 µM
COc1c(C(C)C)cc(O)c2c1CC[C@H]1[C@@](C)(CO)C(=O)CC[C@]21C,IC50,[1],21.9 µM
same,IC50,[2],28.7 µM
same,IC50,[3],> 100 µM
same,IC50,[4],> 100 µM
same,IC50,[5],23.2 µM
same,IC50,[6],21.6 µM
COc1c(C(C)C)cc(O)c2c1CCC1=C(C)C(=O)CC[C@@]12C,IC50,[1],5.1 µM
same,IC50,[2],18.2 µM
same,IC50,[3],7.93 µM
same,IC50,[4],8.62 µM
same,IC50,[5],5.73 µM
same,IC50,[6],17.4 µM
CC(C)c1ccc2c(c1O)CC[C@H]1C3=C(CC[C@]21C)C(=O)OC3 [TRIPTOPHENOLIDE],IC50,[1],17 µM
same,IC50,[2],22.2 µM
same,IC50,[3],22.4 µM
same,IC50,[4],> 100 µM
same,IC50,[5],> 100 µM
same,IC50,[6],42.9 µM
CC(C)c1ccc2c(c1O)CC[C@H]1[C@@](C)(CO)[C@@H](O)CC[C@]21C,IC50,[1],36.3 µM
same,IC50,[2],48.7 µM
same,IC50,[3],> 100 µM
same,IC50,[4],> 100 µM
same,IC50,[5],23.8 µM
same,IC50,[6],30.1 µM
CC(C)C1=CC(=O)C2=C(CC[C@H]3[C@@](C)(CO)[C@@H](O)CC[C@]23C)C1=O,IC50,[1],> 100 µM
same,IC50,[2],17.4 µM
same,IC50,[3],> 100 µM
same,IC50,[4],43.6 µM
same,IC50,[5],11.4 µM
same,IC50,[6],11.5 µM
CC(C)c1ccc2c(c1)C(=O)C[C@H]1[C@@](C)(CO)C(=O)CC[C@]21C [TRIPTOBENZENE N],IC50,[1],43.7 µM
same,IC50,[2],> 100 µM
same,IC50,[3],> 100 µM
same,IC50,[4],> 100 µM
same,IC50,[5],> 100 µM
same,IC50,[6],32.8 µM
CO[C@@H]1OC[C@@]23CCC[C@@]1(C)[C@@H]2CC[C@@]12C[C@@H](CC[C@H]13)[C@](C)(O)C2 (relative stereo),IC50,[1],28.5 µM
same,IC50,[2],48.9 µM
same,IC50,[3],11.6 µM
same,IC50,[4],13.5 µM
same,IC50,[5],> 100 µM
same,IC50,[6],39.3 µM
CO[C@@H]1OC[C@@]2(C)CCC[C@]13[C@@H]1CC[C@H]4C[C@@]1(CC[C@@H]23)C[C@@]4(C)O,IC50,[1],> 100 µM
same,IC50,[2],> 100 µM
same,IC50,[3],> 100 µM
same,IC50,[4],> 100 µM
same,IC50,[5],> 100 µM
same,IC50,[6],> 100 µM
CC1=C(C(=O)O)CC[C@]2(C)C3=C(CC[C@@H]12)C(=O)C(C(C)C)=CC3=O,IC50,[1],> 100 µM
same,IC50,[2],> 100 µM
same,IC50,[3],> 100 µM
same,IC50,[4],> 100 µM
same,IC50,[5],> 100 µM
same,IC50,[6],> 100 µM
COc1c(C(C)C)cc(O)c2c1CC[C@H]1C(C)(C)C(=O)CC[C@]21C,IC50,[1],47.8 µM
same,IC50,[2],39.8 µM
same,IC50,[3],> 100 µM
same,IC50,[4],29.3 µM
same,IC50,[5],> 100 µM
same,IC50,[6],> 100 µM
COc1c(C(C)C)cc(O)c2c1CC[C@H]1C(C)=C(C(=O)O)CC[C@]21C,IC50,[1],> 100 µM
same,IC50,[2],> 100 µM
same,IC50,[3],> 100 µM
same,IC50,[4],> 100 µM
same,IC50,[5],> 100 µM
same,IC50,[6],> 100 µM
